Columns and labels:
Capan-1 (K-Ras G12V) = experiment: CellTiter-Glo cell viability assay, 5-day treatment; assay type: cell-based; settings: Homo sapiens, CAPAN-1, 120 h, 5-day treatment; read-out: Capan-1 Cell Viability assay data (K-Ras G12V, IC50)
In short: (§1)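 Viability is read as luminescence on day 5 after direct compound addition to plated cells, following about 30 minutes' room-temperature equilibration. Each signal is scaled to mean DMSO as 100%.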

NCI-H358 (K-Ras G12C) = experiment: as above; assay type: cell-based; settings: Homo sapiens, NCI-H358, 120 h, 5-day treatment; read-out: H358 Cell Viability assay data (K-Ras G12C, IC50)
In short: as §1

KRAS G12C = KRAS G12C (Homo sapiens, UniProt P01116+P62937, G12C); experiment: Disruption of BRAF RBD interaction with Ras (FRET / MOA assay, with Cyclophilin A); assay type: biochemical; settings: read-out: KRAS G12C FRET data, IC50
Chain of KRAS G12C (P01116 1-169 isoform P01116-2 G12C): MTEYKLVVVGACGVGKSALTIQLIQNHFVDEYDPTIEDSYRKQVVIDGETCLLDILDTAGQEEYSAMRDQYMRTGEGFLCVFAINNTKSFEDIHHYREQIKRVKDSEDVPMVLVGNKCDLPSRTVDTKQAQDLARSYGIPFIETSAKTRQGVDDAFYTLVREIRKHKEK
Chain of KRAS G12C (P62937 whole entry): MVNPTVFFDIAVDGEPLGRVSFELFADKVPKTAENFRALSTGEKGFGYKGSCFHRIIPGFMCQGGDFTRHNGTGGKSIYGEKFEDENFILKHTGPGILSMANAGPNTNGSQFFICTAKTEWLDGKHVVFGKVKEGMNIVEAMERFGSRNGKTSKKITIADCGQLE
In short: (§2)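 TR-FRET: nucleotide-loaded K-Ras mutant or WT with Cyclophilin A and BRAF RBD, compound 10-point 3-fold from 30 μM final, 3 h at 25° C, then anti-His Eu (10 nM) and anti-GST APC (50 nM) for 1.5 h. Decreased FRET ratio versus DMSO gives IC50.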

KRAS G12D = KRAS G12D (Homo sapiens, UniProt P01116+P62937, G12D); experiment: as above; assay type: biochemical; settings: read-out: KRAS G12D FRET data, IC50
Chain of KRAS G12D (P01116 1-169 isoform P01116-2 G12D limits assumed): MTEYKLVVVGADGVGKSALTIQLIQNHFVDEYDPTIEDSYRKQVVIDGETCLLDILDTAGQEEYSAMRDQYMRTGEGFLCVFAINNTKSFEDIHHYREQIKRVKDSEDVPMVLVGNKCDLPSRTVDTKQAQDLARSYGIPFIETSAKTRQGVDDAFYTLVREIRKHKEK
Chain of KRAS G12D (P62937 whole entry): as the sequence (P62937 whole entry) above
In short: as §2

KRAS G12S = KRAS G12S (Homo sapiens, UniProt P01116+P62937, G12S); experiment: as above; assay type: biochemical; settings: read-out: KRAS G12S FRET data, IC50
Chain of KRAS G12S (P01116 1-169 isoform P01116-2 G12S limits assumed): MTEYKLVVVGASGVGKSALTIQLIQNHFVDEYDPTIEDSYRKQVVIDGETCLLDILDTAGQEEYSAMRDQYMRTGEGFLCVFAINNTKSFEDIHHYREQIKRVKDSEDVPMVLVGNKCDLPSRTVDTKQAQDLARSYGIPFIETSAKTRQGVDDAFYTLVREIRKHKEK
Chain of KRAS G12S (P62937 whole entry): as the sequence (P62937 whole entry) above
In short: as §2

KRAS G12V = KRAS G12V (Homo sapiens, UniProt P01116+P62937, G12V); experiment: as above; assay type: biochemical; settings: KRAS G12V; read-out: KRAS G12V FRET data IC50
Chain of KRAS G12V (P01116 1-169 isoform P01116-2 G12V limits assumed): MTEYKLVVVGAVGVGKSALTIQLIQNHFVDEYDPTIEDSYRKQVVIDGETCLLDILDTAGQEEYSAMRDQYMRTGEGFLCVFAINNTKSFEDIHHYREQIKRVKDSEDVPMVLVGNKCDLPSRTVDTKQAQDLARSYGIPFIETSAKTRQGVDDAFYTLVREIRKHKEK
Chain of KRAS G12V (P62937 whole entry): as the sequence (P62937 whole entry) above
In short: as §2

KRAS G13C = KRAS G13C (Homo sapiens, UniProt P01116+P62937, G13C); experiment: as above; assay type: biochemical; settings: read-out: KRAS G13C FRET data, IC50
Chain of KRAS G13C (P01116 1-169 isoform P01116-2 G13C): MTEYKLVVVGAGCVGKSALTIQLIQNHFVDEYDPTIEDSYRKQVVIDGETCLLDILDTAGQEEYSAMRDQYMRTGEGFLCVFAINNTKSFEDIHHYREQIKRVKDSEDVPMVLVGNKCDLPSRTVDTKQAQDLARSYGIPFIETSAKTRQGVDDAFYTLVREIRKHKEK
Chain of KRAS G13C (P62937 whole entry): as the sequence (P62937 whole entry) above
In short: as §2

KRAS G13D = KRAS G13D (Homo sapiens, UniProt P01116+P62937, G13D); experiment: as above; assay type: biochemical; settings: KRAS G13D; read-out: KRAS G13D FRET data IC50
Chain of KRAS G13D (P01116 1-169 isoform P01116-2 G13D limits assumed): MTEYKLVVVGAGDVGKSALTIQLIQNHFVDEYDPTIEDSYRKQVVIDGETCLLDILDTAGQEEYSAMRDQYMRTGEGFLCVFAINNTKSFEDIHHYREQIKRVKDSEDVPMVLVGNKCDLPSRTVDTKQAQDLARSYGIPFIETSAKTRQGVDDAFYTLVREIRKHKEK
Chain of KRAS G13D (P62937 whole entry): as the sequence (P62937 whole entry) above
In short: as §2

KRAS WT = KRAS WT (Homo sapiens, UniProt P01116+P62937); experiment: as above; assay type: biochemical; settings: KRAS WT; read-out: KRAS WT FRET data IC50
Chain of KRAS WT (P01116 1-169 isoform P01116-2 limits assumed): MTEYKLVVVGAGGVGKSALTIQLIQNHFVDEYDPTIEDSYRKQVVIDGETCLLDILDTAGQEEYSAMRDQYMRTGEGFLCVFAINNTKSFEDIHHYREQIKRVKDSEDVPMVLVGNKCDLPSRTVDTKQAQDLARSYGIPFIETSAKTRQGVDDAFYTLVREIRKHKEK
Chain of KRAS WT (P62937 whole entry): as the sequence (P62937 whole entry) above
In short: as §2

NRAS G12C = NRAS G12C (Homo sapiens, UniProt P01111+P62937, G12C); experiment: as above; assay type: biochemical; settings: NRAS G12C; read-out: NRAS G12C FRET data IC50
Chain of NRAS G12C (P01111 whole entry G12C): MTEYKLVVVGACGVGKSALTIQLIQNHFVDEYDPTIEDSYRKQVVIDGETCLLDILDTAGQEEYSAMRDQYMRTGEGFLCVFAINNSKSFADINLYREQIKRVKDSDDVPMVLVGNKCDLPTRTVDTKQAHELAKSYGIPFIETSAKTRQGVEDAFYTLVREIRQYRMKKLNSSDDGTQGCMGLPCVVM
Chain of NRAS G12C (P62937 whole entry): as the sequence (P62937 whole entry) above

SMILES	IC50 (Capan-1 (K-Ras G12V)) [nM]	IC50 (NCI-H358 (K-Ras G12C)) [nM]	IC50 (KRAS G12C) [nM]	IC50 (KRAS G12D) [nM]	IC50 (KRAS G12S) [nM]	IC50 (KRAS G12V) [nM]	IC50 (KRAS G13C) [nM]	IC50 (KRAS G13D) [nM]	IC50 (KRAS WT) [nM]	IC50 (NRAS G12C) [nM]
CCN(C(=O)N(C)[C@H](C(=O)N[C@H]1Cc2nc(cs2)-c2ccc3c(c2)c(c(-c2cccnc2[C@H](C)OC)n3CC)CC(C)(C)COC(=O)[C@@H]2CCCN(N2)C1=O)C(C)C)C1CC1 [Example A352]	100 to 1000	10 to 100	100 to 1000	1000 to 10000	100 to 1000	100 to 1000	100 to 1000	100 to 1000	100 to 1000	100 to 1000
CCn1c(-c2cccnc2[C@H](C)OC)c2c3cc(ccc31)-c1csc(n1)C[C@H](NC(=O)[C@H](C(C)C)N(C)C(=O)N(C)C1CC1)C(=O)N1CCC[C@H](N1)C(=O)OCC(C)(C)C2 [Example A353]	10 to 100	10 to 100	10 to 100	100 to 1000	100 to 1000	100 to 1000	100 to 1000	100 to 1000	100 to 1000	10 to 100
CCn1c(-c2cccnc2[C@H](C)OC)c2c3cc(ccc31)-c1cc(O)cc(c1)C[C@H](NC(=O)[C@H](C(C)C)N(C)C(=O)[C@H]1CCN(C(=O)[C@H]3CCCN3)C1)C(=O)N1CCC[C@H](N1)C(=O)OCC(C)(C)C2 [Example A378]	1000 to 10000	100 to 1000	10 to 100	10 to 100	10 to 100	10 to 100	10 to 100	10 to 100	10 to 100	10 to 100
CCn1c(-c2cccnc2[C@H](C)OC)c2c3cc(ccc31)-c1cc(O)cc(c1)C[C@H](NC(=O)[C@H](C(C)C)N(C)C(=O)[C@H]1CCN(C(=O)[C@@H]3CCCN3C)C1)C(=O)N1CCC[C@H](N1)C(=O)OCC(C)(C)C2 [Example A385]	100 to 1000	100 to 1000	10 to 100	10 to 100	10 to 100	10 to 100	10 to 100	10 to 100	10 to 100	10 to 100
CCn1c(-c2cccnc2[C@H](C)OC)c2c3cc(ccc31)-c1cc(O)cc(c1)C[C@H](NC(=O)[C@H](C(C)C)N(C)C(=O)[C@H]1CC[C@@H](CN(C)C)O1)C(=O)N1CCC[C@H](N1)C(=O)OCC(C)(C)C2 [Example A397]	100 to 1000	100 to 1000	10 to 100	10 to 100	10 to 100	100 to 1000	10 to 100	10 to 100	10 to 100	10 to 100
CCn1c(-c2cccnc2[C@H](C)OC)c2c3cc(ccc31)-c1cc(O)cc(c1)C[C@H](NC(=O)[C@H](C(C)C)N(C)C(=O)[C@@H]1OC[C@@H]3CCC[C@@H]31)C(=O)N1CCC[C@H](N1)C(=O)OCC(C)(C)C2 [Example A407]	100 to 1000	100 to 1000	10 to 100	100 to 1000	10 to 100	10 to 100	10 to 100	10 to 100	10 to 100	10 to 100
CCn1c(-c2cccnc2[C@H](C)OC)c2c3cc(ccc31)-c1csc(n1)C[C@H](NC(=O)[C@H](C(C)C)N(C)C(=O)N1CC(C#N)(N(C)C)C1)C(=O)N1CCC[C@H](N1)C(=O)OCC(C)(C)C2 [Example A452]	10 to 100	10 to 100	10 to 100	1000 to 10000	100 to 1000	100 to 1000	100 to 1000	100 to 1000	100 to 1000	10 to 100

From patent US20230233569A1 (Revolution Medicines, Inc., priority 2020, published 2023)
